From PubChem BioAssay AID330 (DTP/NCI, 2004)
Several values for one entry are separate records, joined by “and”; a condition that tells them apart may be missing. Equal values may be shown once. Toxic doses and inconclusive results are not listed.

System: P388 leukemia ip, CD2F1 mice, survival T/C
Assay: NCI In Vivo Anticancer Drug Screen. Data for tumor model P388 Leukemia (intraperitoneal) in CD2F1 (CDF1) mice
Settings: endpoint: median survival time, higher = longer survival
Outline: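 Mice carrying the transplanted tumor received test compound or vehicle. Survival was recorded in each group, and the value is the treated-group measurement divided by that of the vehicle-treated control group.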

[1] = dose: 50.0 mg/kg/injection, schedule: Q01DX009 (ip), vehicle: saline with Tween-80
[2] = dose: 100.0 mg/kg/injection, schedule: Q01DX009 (ip), vehicle: saline with Tween-80
[3] = dose: 200.0 mg/kg/injection, schedule: Q01DX009 (ip), vehicle: saline with Tween-80
[4] = dose: 50.0 mg/kg/injection, schedule: Q01DX005 (ip), vehicle: saline
[5] = dose: 100.0 mg/kg/injection, schedule: Q01DX005 (ip), vehicle: saline
[6] = dose: 200.0 mg/kg/injection, schedule: Q01DX005 (ip), vehicle: saline
[7] = dose: 60.0 mg/kg/injection, schedule: Q01DX005 (ip), vehicle: saline with Tween-80
[8] = dose: 120.0 mg/kg/injection, schedule: Q01DX005 (ip), vehicle: saline with Tween-80
[9] = dose: 240.0 mg/kg/injection, schedule: Q01DX005 (ip), vehicle: saline with Tween-80
[10] = dose: 50.0 mg/kg/injection, schedule: Q01DX009 (ip), vehicle: saline
[11] = dose: 100.0 mg/kg/injection, schedule: Q01DX009 (ip), vehicle: saline
[12] = dose: 200.0 mg/kg/injection, schedule: Q01DX009 (ip), vehicle: saline
[13] = dose: 60.0 mg/kg/injection, schedule: Q01DX005 (ip), vehicle: Klucel (hydroxypropylcellulose) (HPC)
[14] = dose: 120.0 mg/kg/injection, schedule: Q01DX005 (ip), vehicle: Klucel (hydroxypropylcellulose) (HPC)

For `O=C(O)c1ccc2c(c1)C(=O)c1c(O)ccc(O)c1C2=O`, the T/C [1] was 92 % of control, the T/C [2] was 103 % of control and the T/C [3] was 103 % of control.

For `C/C=C/C=C/C(=O)CCC1(C)OC(=O)C(C)=C1O` (configuration not stated), the T/C (dose: 50.0 mg/kg/injection, schedule: Q01DX005 (ip), vehicle: Klucel (hydroxypropylcellulose) (HPC)) was 96 % of control, the T/C (dose: 100.0 mg/kg/injection, schedule: Q01DX005 (ip), vehicle: Klucel (hydroxypropylcellulose) (HPC)) was 113 % of control and the T/C (dose: 200.0 mg/kg/injection, schedule: Q01DX005 (ip), vehicle: Klucel (hydroxypropylcellulose) (HPC)) was 93 % of control.

With `CC(=O)OCC#CCN1CCC(C)CC1` the T/C [4] was 97 % of control, the T/C [5] was 95 % of control and the T/C [6] was 102 % of control.

For `COc1ccc2nc(NC(=O)Nc3c(Cl)cccc3Cl)sc2c1`, the T/C [7] was 95 % of control, the T/C [8] was 101 % of control and the T/C [9] was 88 % of control.

With `O=C1NN2CCCN=C2c2ncccc21` the T/C [7] was 104 % of control, the T/C [8] was 103 % of control and the T/C [9] was 108 % of control.

For `C=C(CBr)CCCCC`, the T/C [7] was 104 % of control, the T/C [8] was 105 % of control and the T/C [9] was 117 % of control.

`COc1cccc2c1C(=O)c1c(O)c3c(c(O)c1C2=O)CC(O)(/C(C)=N/NC(=O)c1cc(C(F)(F)F)cc(C(F)(F)F)c1)CC3OC1CC(N)C(O)C(C)O1` (configuration not stated) was tested, and the T/C (dose: 0.78 mg/kg/injection, schedule: Q01DX009 (ip), vehicle: water) was 151 % of control, the T/C (dose: 1.56 mg/kg/injection, schedule: Q01DX009 (ip), vehicle: water) was 174 % of control and the T/C (dose: 3.13 mg/kg/injection, schedule: Q01DX009 (ip), vehicle: water) was 160 % of control and 185 % of control. For the same compound, the T/C (dose: 6.25 mg/kg/injection, schedule: Q01DX009 (ip), vehicle: water) was 93 % of control and 95 % of control.

With `C[CH2][Ge]([CH2]C)[CH2]C.C[CH2][Ge]([CH2]C)[O]C` the T/C [10] was 106 % of control, the T/C [11] was 92 % of control and the T/C [12] was 92 % of control.

With `COc1ccc(-c2cnc(C(N)=O)c(=O)[nH]2)cc1` the T/C (dose: 100.0 mg/kg/injection, schedule: Q04DX003 (ip), vehicle: saline with Tween-80) was 104 % of control, the T/C (dose: 200.0 mg/kg/injection, schedule: Q04DX003 (ip), vehicle: saline with Tween-80) was 95 % of control and the T/C (dose: 400.0 mg/kg/injection, schedule: Q04DX003 (ip), vehicle: saline with Tween-80) was 100 % of control.

In the case of `COC(=O)c1nc(N)nc(C(=O)OC)c1C(=O)c1ccc2ccccc2c1`, the T/C [13] is reported as 102 % of control and the T/C [14] is reported as 101 % of control.

With `C=C(C)C1CCC2(C1)C(C)=CCCC2C` (configuration not stated) the T/C (dose: 12.5 mg/kg/injection, schedule: Q01DX005 (ip), vehicle: saline) was 107 % of control, the T/C (dose: 25.0 mg/kg/injection, schedule: Q01DX005 (ip), vehicle: saline) was 99 % of control and the T/C [4] was 108 % of control. The T/C [5] was 100 % of control and the T/C [6] was 99 % of control.

`Nn1cn[nH]c1=S` was tested, and the T/C (dose: 25.0 mg/kg/injection, schedule: Q01DX009 (ip), vehicle: saline) was 100 % of control, the T/C [10] was 97 % of control and the T/C [11] was 98 % of control. The T/C [12] was 100 % of control.

`CC1(C)CC(=O)C(CC2=C(N)CC(C)(C)CC2=O)=C(N)C1` was tested, and the T/C (dose: 25.0 mg/kg/injection, schedule: Q04DX003 (ip), vehicle: Klucel (hydroxypropylcellulose) (HPC)) was 95 % of control, the T/C (dose: 50.0 mg/kg/injection, schedule: Q04DX003 (ip), vehicle: Klucel (hydroxypropylcellulose) (HPC)) was 101 % of control and the T/C (dose: 100.0 mg/kg/injection, schedule: Q04DX003 (ip), vehicle: Klucel (hydroxypropylcellulose) (HPC)) was 94 % of control. The T/C (dose: 200.0 mg/kg/injection, schedule: Q04DX003 (ip), vehicle: Klucel (hydroxypropylcellulose) (HPC)) was 95 % of control.

In the case of `CC(=O)OC1C=CCC2C(=O)c3cccc(O)c3C(=O)C12` (configuration not stated), the T/C [13] is reported as 107 % of control, the T/C [14] is reported as 105 % of control and the T/C (dose: 240.0 mg/kg/injection, schedule: Q01DX005 (ip), vehicle: Klucel (hydroxypropylcellulose) (HPC)) is reported as 97 % of control.

With `C=CCCC(C)CC` (configuration not stated) the T/C [1] was 105 % of control, the T/C [2] was 103 % of control and the T/C [3] was 100 % of control.

In the case of `CCCCCCCCCc1ccc(OC(C)OCCOCCOCC)cc1` (configuration not stated), the T/C [7] is reported as 98 % of control, the T/C [8] is reported as 98 % of control and the T/C [9] is reported as 98 % of control.
